Consider seven compounds from paper PMC6473744, “Antiproliferative Activity of (-)-Rabdosiin Isolated from Ocimum sanctum L” (Medicines, 2019).

For data set [1], the system named is MCF-7. Description: MTT reduction assay, cytotoxicity. In kind it is cell-based, human. To be noted: for IC50: Homo sapiens, MCF7. As to the method: Compounds were prepared at a stock solution of 10.0 mg/mL in DMSO and the extract at 20.0 mg/mL in DMSO. […] Cytotoxicity was evaluated by the MTT reduction assay, which determines the effect of treatment with an exogenously added agent on the viability of the cell population. […] Further, cells were incubated with the compounds for 72 h at 37 °C in a 5% CO2 incubator. The MTT reagent (Sigma-Aldrich, Darmstadt, Germany; 1 mg/mL in phosphate buffered saline (PBS); 100 μL/well) was added during the last 4 h of incubation. The formazan crystals formed were dissolved by adding 0.1 M HCl in 2-propanol (100 μL/well) and absorption was measured using an ELISA reader (Denley WeScan, Finland) at 545 nm with reference filter set at 690 nm. All cultures were set in triplicate, whereas cells incubated in complete medium or in medium containing the equivalent amount of DMSO, as well as cells incubated in the presence of doxorubicin (Sigma-Aldrich) were used as negative and positive controls, respectively.
All experiments were performed at least three times.
A general note: Tetrazolium dyes change colour on reduction, which living cells bring about.

Data set [2] concerns human peripheral blood mononuclear cells (PBMCs). The data set is described as follows: Cytotoxic effect against PBMCs, annexin V/PI flow cytometry. The format is cell-based. To be noted: 24 h. As to the method: (§1) MCF-7, SKBR3 and HCT-116 cells were incubated with compound 6 and analyzed with flow cytometry following staining with annexin V and propidium iodide (PI). […] Cells were detached with 2 mM EDTA in Dulbecco’s PBS (DPBS), harvested, centrifuged in cold PBS (1500 rpm; 5 min), and stained with the Annexin V-FITC Apoptosis Detection Kit (BioLegend, Fell, Germany; cat# 640914), according to the manufacturers’ instructions. In brief, cells were resuspended in binding buffer, then annexin V-FITC (5 μL) and PI (10 μL; 0.03 μg/sample) were added, mixed, and incubated with the cells for 15 min in the dark at room temperature. The volume was adjusted to 500 μL with binding buffer and the cell suspension was immediately analyzed in a FACSCanto II (BD Biosciences, San Diego, CA, USA) using FACSDiva software (V7, BD Biosciences).
Compound 6 was additionally assessed for its cytotoxicity against human peripheral blood mononuclear cells (PBMCs) isolated from healthy blood donors’ peripheral blood as previously described. Prior to blood draw, individuals gave their informed consent according to the regulations approved by the 2nd Peripheral Blood Transfusion Unit and Hemophiliac Centre, “Laikon” General Hospital Institutional Review Board, Athens, Greece. PBMCs were seeded in 24-well plates (5 × 10^5/mL; 2 mL/well) and exposed to 2 concentrations of compound 6: 80 μg/mL and 40 μg/mL. PBMCs were collected, stained as described in 2.5 and analyzed by flow cytometry.
(In general: A flow cytometer gives signals particle by particle.)

Data set [3] relates to HCT-116. Description: MTT reduction assay, cytotoxicity. In kind it is cell-based. The note with it: Homo sapiens. As to the method:
(§2) The cytotoxic activity of the compounds, as well as of the initial methanol extract, were tested against three human cancer cell lines: MCF-7 (breast; estrogen receptor positive (ER+), progesterone receptor (PR)+, and HER2 negative (-)), SKBR3 (breast; ER-, PR-, and HER2+), and HCT-116 (colon). All cell lines were maintained in RPMI-1640, supplemented with 10% heat-inactivated fetal bovine serum (FBS), 10 mM Hepes, 10 U/mL penicillin, 10 U/mL streptomycin, and […] (all from Lonza, Cologne, Germany) (thereafter referred to as complete medium) at 37 °C in a humidified 5% CO2 incubator.
(§3) Compounds were prepared at a stock solution of 10.0 mg/mL in DMSO and the extract at 20.0 mg/mL in DMSO. Prior to their use, they were diluted in plain RPMI-1640. Cytotoxicity was evaluated by the MTT reduction assay, which determines the effect of treatment with an exogenously added agent on the viability of the cell population. Briefly, cells were plated in 96-well plates (Greiner Bio-One GmbH, Frickenhausen, Germany; 5 × 10^3 cells/well) and incubated at 5% CO2 and 95% air at 37 °C for 24 h, in order to adhere. Further, cells were incubated with the compounds for 72 h at 37 °C in a 5% CO2 incubator. The MTT reagent (Sigma-Aldrich, Darmstadt, Germany; 1 mg/mL in phosphate buffered saline (PBS); 100 μL/well) was added during the last 4 h of incubation. The formazan crystals formed were dissolved by adding 0.1 M HCl in 2-propanol (100 μL/well) and absorption was measured using an ELISA reader (Denley WeScan, Finland) at 545 nm with reference filter set at 690 nm. All cultures were set in triplicate, whereas cells incubated in complete medium or in medium containing the equivalent amount of DMSO, as well as cells incubated in the presence of doxorubicin (Sigma-Aldrich) were used as negative and positive controls, respectively. The half maximal inhibitory concentration (IC50) was calculated according to the formula: 100(A0 − A)/A0 = 50, where A and A0 are optical densities of wells exposed to the compounds and control wells, respectively.
(§4) The compounds were tested at a concentration range of 200.0 to 6.25 μg/mL and the extract at 750.0 to 1.25 μg/mL. […] All experiments were performed at least three times.

For data set [4], the system named is SKBR3. Description: MTT reduction assay, cytotoxicity. To be noted: Homo sapiens, SK-BR-3. In kind it is cell-based. As to the method: as §2, §3, §4
For data set [5], the system named is HCT-116. The data set is described as follows: Annexin V/PI flow cytometry analysis. In kind it is cell-based, human. To be noted: HCT-116, 80 μg/mL, 72 h. The method, then:
as §1

Data set [6] relates to SKBR3. Description: Annexin V/PI flow cytometry analysis. In kind it is cell-based, human. The note with it: SKBR3, 80 μg/mL, 72 h. The method, then:
as §1

The subject of data set [7] is MCF-7. The data set is described as follows: Annexin V/PI flow cytometry analysis. The format is cell-based, human. To be noted: MCF-7, 80 μg/mL, 72 h. The method, then:
as §1

The test system of data set [8] is MCF-7, SKBR3, and HCT-116 cells. Description: Annexin V/PI flow cytometry, stated for all cell lines together. The format is cell-based, human. The note with it: 72 h. The method, then: as §1
For data set [9], the system named is MCF-7, SKBR3, and HCT-116. Description: MTT reduction assay, stated for all cell lines together. The format is cell-based. The note with it: Homo sapiens; all cell lines tested, positive control. The method, then: as §2
Compounds were prepared at a stock solution of 10.0 mg/mL in DMSO and the extract at 20.0 mg/mL in DMSO. Prior to their use, they were diluted in plain RPMI-1640. Cytotoxicity was evaluated by the MTT reduction assay, which determines the effect of treatment with an exogenously added agent on the viability of the cell population. […] The formazan crystals formed were dissolved by adding 0.1 M HCl in 2-propanol (100 μL/well) and absorption was measured using an ELISA reader (Denley WeScan, Finland) at 545 nm with reference filter set at 690 nm. […] The half maximal inhibitory concentration (IC50) was calculated according to the formula: 100(A0 − A)/A0 = 50, where A and A0 are optical densities of wells exposed to the compounds and control wells, respectively. […]

Setting [10] is: MCF-7, 72 h exposure, mean ± SD of three experiments.
Setting [11] is: 40 μg/mL, range over the cell lines.

A word on the IC50: it is the concentration that gives 50% inhibition. Higher therefore signals a need for much substance.

Molecules are shown by their SMILES. Converted amounts (≈) assume the structure as drawn.

With `O=C(O)/C=C/c1ccc(O[C@@H]2O[C@H](CO)[C@@H](O)[C@H](O)[C@H]2O)cc1` [Compound 11, (E)-p-coumaroyl 4-O-β-D-glucoside], the “IC50 ± SD” value with MCF-7 [1] (setting [10]) turned out to be 139 ± 7.78 µg/mL (≈ 426 µM).

Consider `O=C(O[C@H](Cc1ccc(O)c(O)c1)C(=O)O)C1=Cc2cc(O)c(O)cc2[C@@H](c2ccc(O)c(O)c2)[C@@H]1C(=O)O[C@H](Cc1ccc(O)c(O)c1)C(=O)O` [Compound 6, (-)-rabdosiin], for which the IC50 with MCF-7 [1] (setting [10]) was found to be 75 ± 2.12 µg/mL; with HCT-116 [3] (HCT-116, 72 h exposure, mean ± SD of three experiments) it was 84 ± 7.78 µg/mL; in the data set on SKBR3 [4] (SKBR3, 72 h exposure, mean ± SD of three experiments) it was 83 ± 3.54 µg/mL. The “early apoptotic PBMCs” value in data set [2] (donor 1, 40 μg/mL) is 1.8%; in data set [2] (donor 1, 80 μg/mL), 2.8%; in [2] (donor 2, 40 μg/mL) it was 2.1%; in [2] (donor 2, 80 μg/mL), 4.3%. In addition, the “late apoptotic/necrotic PBMCs” value in data set [2] (donor 1, 40 μg/mL) is reported as 1.7%; in [2] (donor 1, 80 μg/mL), 3.0%; in [2] (donor 2, 40 μg/mL), 1.9%; in data set [2] (donor 2, 80 μg/mL), 3.1%. The figures for the “early apoptotic cells (annexin V+)” value with HCT-116 [5], in the data set on SKBR3 [6] and in the data set with MCF-7 [7] were 43.1%, 40.1% and 44.9%, respectively. In addition, the “late apoptotic/necrotic cells (annexin V+/PI+)” value with HCT-116 [5] was 10.2%; in the data set with SKBR3 [6] it was 9.1%; in the data set with MCF-7 [7], 12.3%. Further, in data set [8] (setting [11]), the early apoptotic cells is listed as 13.5–20.1%. In addition, in data set [8] (setting [11]), the late apoptotic/necrotic cells is reported as 3.9–6.5%. Moreover, the “cells driven to apoptosis” value in [8] (80 μg/mL, all cell lines) is “ca. 50%”.

`COc1cccc2c1C(=O)c1c(O)c3c(c(O)c1C2=O)C[C@@](O)(C(=O)CO)C[C@@H]3O[C@H]1C[C@H](N)[C@H](O)[C@H](C)O1` [Doxorubicin, reference compound]: the IC50 in the data set with MCF-7 [1] (MCF-7, positive control) was 92 ± 7 nM; in the data set on HCT-116 [3] (HCT-116, positive control), 192 ± 29 nM; in the data set with SKBR3 [4] (SKBR3, positive control), 95 ± 8 nM; in data set [9], no more than 200 nM.

As for `O=C(O[C@H](Cc1ccc(O)c(O)c1)C(=O)O)[C@H]1[C@H](C(=O)O[C@H](Cc2ccc(O)c(O)c2)C(=O)O)[C@H](c2ccc(O)c(O)c2)[C@H]1c1ccc(O)c(O)c1` [Compound 7, shimobashiric acid C], in the data set on MCF-7 [1] (setting [10]), the “IC50 ± SD” value amounted to 142 ± 3.54 µg/mL (≈ 197 µM).

In the data set on MCF-7 [1] (setting [10]), `O=C(O)c1ccc(O)c(O)c1` [Compound 13, protocatechuic acid] yielded an IC50 of 140 ± 4.95 µg/mL.

In the data set on MCF-7 [1] (setting [10]), `O=C(O)C(O)Cc1ccc(O)c(O)c1` (centres unmarked) [Compound 12, 3-(3,4-dihydroxyphenyl) lactic acid] returned an IC50 of 140 ± 12 µg/mL.

For the compound `O=C(O)[C@H]1O[C@@H](Oc2cc(O)c3c(=O)cc(-c4ccc(O)c(O)c4)oc3c2)[C@H](O)[C@@H](O)[C@@H]1O` [Compound 9, luteolin 7-O-β-D-glucuronide], the “IC50 ± SD” value with MCF-7 [1] (setting [10]) turned out to be 141 ± 1.41 µg/mL (≈ 305 µM).
